Experiment [1] deals with G protein-coupled receptor kinase 5 (Homo sapiens) (UniProt P34947). Description: Inhibition of human recombinant GPRK5 at 15 nM related to control ULK1.
Experiment [2] has as its target Cyclin-dependent kinase 18 (Homo sapiens) (UniProt Q07002). Description: Inhibition of human recombinant PCTAIRE3 at 15 nM related to control ULK1.
Experiment [3] addresses Protein kinase C alpha type (Homo sapiens) (UniProt P17252). Nature of the experiment: Inhibition of human recombinant PKCa at 15 nM related to control ULK1.
Experiment [4] has as its target BDNF/NT-3 growth factors receptor (Homo sapiens) (UniProt Q16620). Description: Inhibition of human recombinant TRKB at 15 nM related to control ULK1.
The target of experiment [5] is Dual specificity protein kinase CLK1 (Homo sapiens) (UniProt P49759). Nature of the experiment: Inhibition of human recombinant CLK1 at 40 nM related to control ULK1.
Sequence of Dual specificity protein kinase CLK1 (Homo sapiens) (P49759 whole entry, looked up): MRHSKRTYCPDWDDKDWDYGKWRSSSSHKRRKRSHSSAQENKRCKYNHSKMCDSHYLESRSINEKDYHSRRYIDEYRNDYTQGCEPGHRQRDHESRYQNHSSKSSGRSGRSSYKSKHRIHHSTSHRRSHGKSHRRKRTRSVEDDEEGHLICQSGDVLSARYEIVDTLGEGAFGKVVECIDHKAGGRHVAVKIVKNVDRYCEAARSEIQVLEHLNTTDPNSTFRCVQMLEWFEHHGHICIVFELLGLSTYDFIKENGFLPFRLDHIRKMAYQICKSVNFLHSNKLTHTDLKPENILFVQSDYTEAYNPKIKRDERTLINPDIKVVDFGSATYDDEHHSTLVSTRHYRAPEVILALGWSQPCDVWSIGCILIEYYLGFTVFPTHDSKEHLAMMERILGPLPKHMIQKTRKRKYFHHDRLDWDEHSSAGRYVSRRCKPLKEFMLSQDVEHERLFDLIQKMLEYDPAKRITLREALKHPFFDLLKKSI
In experiment [6] the target is Tyrosine-protein kinase CSK (Homo sapiens) (UniProt P41240). Nature of the experiment: Inhibition of human recombinant CSK at 40 nM related to control ULK1.
In experiment [7] the target is T1, Ephrin type-B receptor 3 (Homo sapiens) (UniProt P54753).
T1 sequence (whole entry): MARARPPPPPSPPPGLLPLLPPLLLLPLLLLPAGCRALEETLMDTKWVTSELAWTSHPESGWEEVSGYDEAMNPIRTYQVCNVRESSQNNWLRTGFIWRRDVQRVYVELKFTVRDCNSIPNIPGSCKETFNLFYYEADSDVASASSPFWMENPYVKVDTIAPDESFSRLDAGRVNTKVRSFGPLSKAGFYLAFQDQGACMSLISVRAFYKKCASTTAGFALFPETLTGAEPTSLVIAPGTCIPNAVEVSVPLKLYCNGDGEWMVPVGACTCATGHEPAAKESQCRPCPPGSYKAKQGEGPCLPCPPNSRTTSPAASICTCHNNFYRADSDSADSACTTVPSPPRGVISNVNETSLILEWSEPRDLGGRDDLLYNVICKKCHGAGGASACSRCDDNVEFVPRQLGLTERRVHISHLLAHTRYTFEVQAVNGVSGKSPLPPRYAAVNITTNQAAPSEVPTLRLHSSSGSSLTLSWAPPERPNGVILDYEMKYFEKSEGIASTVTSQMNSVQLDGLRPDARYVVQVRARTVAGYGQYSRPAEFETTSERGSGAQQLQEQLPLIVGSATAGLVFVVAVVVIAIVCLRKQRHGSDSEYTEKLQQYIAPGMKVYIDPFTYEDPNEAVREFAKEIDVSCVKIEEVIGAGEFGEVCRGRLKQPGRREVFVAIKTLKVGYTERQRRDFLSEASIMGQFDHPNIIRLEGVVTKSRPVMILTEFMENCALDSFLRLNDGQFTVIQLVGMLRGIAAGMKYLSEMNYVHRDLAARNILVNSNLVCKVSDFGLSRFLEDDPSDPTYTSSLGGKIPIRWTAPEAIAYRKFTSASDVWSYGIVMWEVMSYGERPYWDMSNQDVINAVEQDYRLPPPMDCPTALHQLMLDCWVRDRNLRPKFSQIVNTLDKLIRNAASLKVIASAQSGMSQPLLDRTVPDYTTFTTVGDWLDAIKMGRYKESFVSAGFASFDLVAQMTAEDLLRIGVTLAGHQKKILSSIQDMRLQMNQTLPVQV
Description: Inhibition of human recombinant EphB3 at 40 nM related to control ULK1.

For experiment [8], the target named is T2, Interleukin-1 receptor-associated kinase 4 (Homo sapiens) (UniProt Q9NWZ3).
T2 sequence (whole entry): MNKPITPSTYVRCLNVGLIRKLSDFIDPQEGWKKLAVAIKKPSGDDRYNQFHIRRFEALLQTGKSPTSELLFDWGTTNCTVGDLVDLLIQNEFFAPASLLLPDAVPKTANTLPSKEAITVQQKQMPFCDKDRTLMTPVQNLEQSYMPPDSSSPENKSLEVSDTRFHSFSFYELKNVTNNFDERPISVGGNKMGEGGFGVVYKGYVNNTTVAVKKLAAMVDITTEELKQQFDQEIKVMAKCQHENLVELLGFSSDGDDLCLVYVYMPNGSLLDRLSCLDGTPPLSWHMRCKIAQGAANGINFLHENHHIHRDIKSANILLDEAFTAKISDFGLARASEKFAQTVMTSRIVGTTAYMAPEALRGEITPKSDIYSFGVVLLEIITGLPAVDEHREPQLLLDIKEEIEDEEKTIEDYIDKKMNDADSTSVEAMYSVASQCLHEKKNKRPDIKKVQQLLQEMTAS
Nature of the experiment: Inhibition of human recombinant IRAK4 at 500 nM in presence of ATP by radiometric assay relative to control.

Experiment [9] addresses Aurora kinase B (Homo sapiens) (UniProt Q96GD4). Nature of the experiment: Inhibition of human recombinant AurB at 500 nM related to control ULK1.
For experiment [10], the target named is Serine/threonine-protein kinase MRCK beta (Homo sapiens) (UniProt Q9Y5S2). Nature of the experiment: Inhibition of human recombinant MRCKb at 500 nM related to control ULK1.
Sequence of Serine/threonine-protein kinase MRCK beta (Homo sapiens) (Q9Y5S2 whole entry): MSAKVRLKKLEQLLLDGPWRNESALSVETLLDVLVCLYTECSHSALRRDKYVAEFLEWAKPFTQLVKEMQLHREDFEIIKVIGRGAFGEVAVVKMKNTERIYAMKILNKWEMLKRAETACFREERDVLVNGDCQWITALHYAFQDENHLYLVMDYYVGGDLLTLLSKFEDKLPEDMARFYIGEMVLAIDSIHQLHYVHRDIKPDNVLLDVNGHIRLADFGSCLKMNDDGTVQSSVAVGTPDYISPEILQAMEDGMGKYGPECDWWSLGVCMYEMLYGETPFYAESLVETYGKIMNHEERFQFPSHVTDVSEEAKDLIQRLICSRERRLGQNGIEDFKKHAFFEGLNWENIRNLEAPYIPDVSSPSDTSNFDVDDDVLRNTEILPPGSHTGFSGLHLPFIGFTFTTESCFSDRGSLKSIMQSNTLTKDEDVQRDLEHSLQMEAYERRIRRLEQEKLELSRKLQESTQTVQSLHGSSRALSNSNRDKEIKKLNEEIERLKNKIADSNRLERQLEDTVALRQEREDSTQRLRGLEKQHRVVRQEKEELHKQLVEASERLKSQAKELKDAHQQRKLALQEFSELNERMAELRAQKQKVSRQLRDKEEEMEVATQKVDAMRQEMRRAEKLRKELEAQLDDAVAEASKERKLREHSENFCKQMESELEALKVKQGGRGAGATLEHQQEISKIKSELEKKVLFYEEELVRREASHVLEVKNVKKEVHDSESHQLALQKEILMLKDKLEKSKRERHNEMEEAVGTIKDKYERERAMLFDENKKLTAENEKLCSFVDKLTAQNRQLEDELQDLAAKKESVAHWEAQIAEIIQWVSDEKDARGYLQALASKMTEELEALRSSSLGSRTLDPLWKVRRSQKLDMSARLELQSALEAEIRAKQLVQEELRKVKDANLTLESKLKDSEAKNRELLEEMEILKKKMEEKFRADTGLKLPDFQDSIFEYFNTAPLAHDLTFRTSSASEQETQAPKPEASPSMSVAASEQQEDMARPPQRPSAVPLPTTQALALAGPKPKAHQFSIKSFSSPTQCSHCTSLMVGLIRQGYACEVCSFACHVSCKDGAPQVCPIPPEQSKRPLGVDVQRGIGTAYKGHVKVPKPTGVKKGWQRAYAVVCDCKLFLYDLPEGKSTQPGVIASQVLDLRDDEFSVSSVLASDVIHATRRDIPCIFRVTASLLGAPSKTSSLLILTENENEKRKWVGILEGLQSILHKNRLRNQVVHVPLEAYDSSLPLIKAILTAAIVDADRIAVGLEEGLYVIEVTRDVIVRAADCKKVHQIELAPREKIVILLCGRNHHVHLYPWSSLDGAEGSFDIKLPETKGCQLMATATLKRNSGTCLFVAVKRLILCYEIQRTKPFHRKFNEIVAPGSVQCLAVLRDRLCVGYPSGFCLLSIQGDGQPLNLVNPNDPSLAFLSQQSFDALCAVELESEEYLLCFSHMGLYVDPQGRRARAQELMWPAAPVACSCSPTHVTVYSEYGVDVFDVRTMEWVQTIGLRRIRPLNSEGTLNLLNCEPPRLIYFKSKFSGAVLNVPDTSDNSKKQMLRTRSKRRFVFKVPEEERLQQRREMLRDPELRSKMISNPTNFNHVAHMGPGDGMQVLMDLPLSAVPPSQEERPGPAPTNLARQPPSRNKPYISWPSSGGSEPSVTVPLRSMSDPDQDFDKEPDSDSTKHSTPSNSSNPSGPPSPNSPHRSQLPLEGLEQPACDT
Experiment [11] addresses Protein kinase C alpha type (Homo sapiens) (UniProt P17252). Description: Inhibition of human recombinant PKCa at 500 nM related to control ULK1.
In experiment [12] the target is T3, Testis-specific serine/threonine-protein kinase 2 (Homo sapiens) (UniProt Q96PF2).
T3 sequence (whole entry): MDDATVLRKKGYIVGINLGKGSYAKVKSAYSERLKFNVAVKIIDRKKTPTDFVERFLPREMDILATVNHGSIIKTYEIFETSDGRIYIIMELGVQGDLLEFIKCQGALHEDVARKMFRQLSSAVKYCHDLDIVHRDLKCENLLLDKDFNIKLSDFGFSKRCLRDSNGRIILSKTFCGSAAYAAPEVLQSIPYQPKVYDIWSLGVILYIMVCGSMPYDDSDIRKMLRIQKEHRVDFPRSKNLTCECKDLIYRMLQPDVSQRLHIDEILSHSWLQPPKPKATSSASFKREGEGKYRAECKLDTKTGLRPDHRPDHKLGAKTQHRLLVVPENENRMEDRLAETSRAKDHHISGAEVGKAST
Description: Inhibition of human recombinant TSSK2 at 500 nM related to control ULK1.

The structures appear in SMILES notation.

Sequence of Cyclin-dependent kinase 18 (Homo sapiens) (Q07002 whole entry): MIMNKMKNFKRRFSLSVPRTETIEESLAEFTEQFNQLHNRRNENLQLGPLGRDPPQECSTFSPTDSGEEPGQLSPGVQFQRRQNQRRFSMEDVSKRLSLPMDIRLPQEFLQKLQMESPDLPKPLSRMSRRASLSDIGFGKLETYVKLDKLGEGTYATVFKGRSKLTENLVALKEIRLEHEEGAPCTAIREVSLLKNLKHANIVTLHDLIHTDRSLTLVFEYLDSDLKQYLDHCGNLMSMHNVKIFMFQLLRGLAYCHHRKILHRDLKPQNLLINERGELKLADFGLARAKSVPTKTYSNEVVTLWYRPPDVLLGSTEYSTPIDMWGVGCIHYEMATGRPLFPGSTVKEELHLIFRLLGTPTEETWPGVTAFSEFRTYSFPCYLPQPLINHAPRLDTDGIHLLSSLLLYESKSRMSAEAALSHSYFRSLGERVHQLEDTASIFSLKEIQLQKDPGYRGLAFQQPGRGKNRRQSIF
Sequence of G protein-coupled receptor kinase 5 (Homo sapiens) (P34947 whole entry, looked up): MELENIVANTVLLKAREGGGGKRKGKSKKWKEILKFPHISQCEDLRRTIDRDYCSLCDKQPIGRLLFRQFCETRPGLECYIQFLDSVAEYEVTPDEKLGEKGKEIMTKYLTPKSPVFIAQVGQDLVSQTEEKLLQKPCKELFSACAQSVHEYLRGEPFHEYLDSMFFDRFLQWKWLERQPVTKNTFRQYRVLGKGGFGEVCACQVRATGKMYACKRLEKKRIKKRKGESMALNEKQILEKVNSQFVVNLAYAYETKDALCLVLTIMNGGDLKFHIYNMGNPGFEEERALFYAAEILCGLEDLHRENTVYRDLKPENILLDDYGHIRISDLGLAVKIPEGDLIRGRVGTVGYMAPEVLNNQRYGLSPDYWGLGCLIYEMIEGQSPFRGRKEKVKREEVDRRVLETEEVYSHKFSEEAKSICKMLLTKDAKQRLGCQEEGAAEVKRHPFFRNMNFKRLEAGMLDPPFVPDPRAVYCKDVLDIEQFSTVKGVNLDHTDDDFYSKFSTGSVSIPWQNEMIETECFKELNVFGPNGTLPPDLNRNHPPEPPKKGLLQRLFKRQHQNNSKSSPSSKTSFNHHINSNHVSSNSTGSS
Sequence of BDNF/NT-3 growth factors receptor (Homo sapiens) (Q16620 32-822 limits assumed): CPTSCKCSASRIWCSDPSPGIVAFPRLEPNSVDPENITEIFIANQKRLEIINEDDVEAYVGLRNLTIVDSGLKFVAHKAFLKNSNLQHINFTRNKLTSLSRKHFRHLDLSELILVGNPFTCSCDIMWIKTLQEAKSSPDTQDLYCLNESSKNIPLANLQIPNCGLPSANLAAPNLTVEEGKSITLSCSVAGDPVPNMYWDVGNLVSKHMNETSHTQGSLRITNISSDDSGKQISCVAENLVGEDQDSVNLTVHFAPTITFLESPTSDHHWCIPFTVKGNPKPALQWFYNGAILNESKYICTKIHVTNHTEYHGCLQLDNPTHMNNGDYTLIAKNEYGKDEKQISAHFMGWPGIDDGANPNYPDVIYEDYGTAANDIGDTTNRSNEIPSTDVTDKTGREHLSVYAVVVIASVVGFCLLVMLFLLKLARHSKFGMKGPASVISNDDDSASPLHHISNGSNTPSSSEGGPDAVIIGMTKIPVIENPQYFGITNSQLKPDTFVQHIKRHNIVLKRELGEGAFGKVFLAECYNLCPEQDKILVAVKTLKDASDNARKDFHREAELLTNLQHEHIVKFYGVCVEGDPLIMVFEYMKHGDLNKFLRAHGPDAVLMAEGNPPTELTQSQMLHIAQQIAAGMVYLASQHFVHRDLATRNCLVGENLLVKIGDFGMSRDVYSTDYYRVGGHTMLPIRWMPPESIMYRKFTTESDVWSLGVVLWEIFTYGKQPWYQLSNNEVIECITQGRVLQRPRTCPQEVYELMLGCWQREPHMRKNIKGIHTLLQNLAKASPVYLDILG
Sequence of Aurora kinase B (Homo sapiens) (Q96GD4 whole entry): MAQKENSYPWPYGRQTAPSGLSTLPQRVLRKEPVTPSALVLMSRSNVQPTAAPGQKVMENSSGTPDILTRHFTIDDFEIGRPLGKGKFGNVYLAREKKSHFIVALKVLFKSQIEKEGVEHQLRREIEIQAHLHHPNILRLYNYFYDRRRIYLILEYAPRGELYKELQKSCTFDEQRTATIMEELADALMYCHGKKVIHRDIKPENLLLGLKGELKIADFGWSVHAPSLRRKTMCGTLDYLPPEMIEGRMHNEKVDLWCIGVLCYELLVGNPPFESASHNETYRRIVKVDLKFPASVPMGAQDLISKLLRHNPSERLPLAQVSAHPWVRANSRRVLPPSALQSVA

For `CC(C)[C@H](NC(=O)c1cc(-c2cnn3cc(-c4ccc(OCCN5CCCCC5)cc4)cnc23)cs1)C(F)(F)F`, the fold change (FC) in experiment [1] is 0; in experiment [2] it was 0.76; in experiment [3] it was 0.08; in [4] it was 0.
Take `O=C(N[C@@H](C1CC1)C(F)(F)F)c1cc(-c2cnn3cc(-c4ccc(F)cc4)cnc23)cs1`: the fold change (FC) in [5] came out at 0.47; in [6], 0; in experiment [7], 0.
Regarding `CNC(=O)c1ccccc1Oc1nc(Nc2cc(OC)c(OC)c(OC)c2)ncc1Br`, the inhibition in experiment [8] was 6%. Further, the fold change (FC) was determined as 1.24 in [9], 0 in experiment [10], 0 in [11] and 0.03 in experiment [12].
